This note sets out measurements from ChEMBL document CHEMBL4354780, “Targeting S. mutans biofilms: a perspective on preventing dental caries” (Medchemcomm, 2019).

Molecules are shown by their SMILES. ≈ marks a conversion by molar mass, not a printed value.

Data set [1] has as its system Streptococcus mutans. The data set can be described thus: Antibiofilm activity against Streptococcus mutans assessed as inhibition of biofilm formation by measuring drug level causing induction of micro-colony phenotype. The class given is functional.
The subject of data set [2] is Streptococcus mutans. The data set can be described thus: Antibiofilm activity against Streptococcus mutans assessed as inhibition of biofilm formation at 200 ug/ml after 4 hrs by crystal violet staining based assay relative to control. The data set is classed as functional.
Data set [3] relates to Streptococcus mutans. The data set is described as follows: Antibiofilm activity against Streptococcus mutans assessed as inhibition of biofilm formation at 200 ug/ml after 4 hrs by Congo red staining based assay relative to control. The data set is classed as functional.
Data set [4] deals with Streptococcus mutans. The data set is described as follows: Antibiofilm activity against Streptococcus mutans assessed as inhibition of biofilm formation. The class given is functional, organism-based. The settings on record: for IC50: Streptococcus mutans.
Data set [5] has as its system Streptococcus mutans. The data set can be described thus: Antibacterial activity against Streptococcus mutans. The class given is organism-based.
The test system of data set [6] is Streptococcus mutans. The data set is described as follows: Antibiofilm activity against Streptococcus mutans assessed as inhibition of biofilm formation by measuring reduction in cell adherence at sub-MIC level relative to control. The class given is functional.
Data set [7] relates to Streptococcus mutans. The data set can be described thus: Inhibition of Streptococcus mutans F-ATPase activity relative to control. As to conditions: concentration not given here.
The subject of data set [8] is Streptococcus mutans. The data set can be described thus: Antibiofilm activity against 24 hrs-old biofilm of Streptococcus mutans assessed as reduction in cell viability at 5 ug/ml relative to control. The class given is functional.
The subject of data set [9] is Streptococcus mutans. The data set can be described thus: Antibiofilm activity against 24 hrs-old biofilm of Streptococcus mutans assessed as reduction in cell viability at 10 ug/ml relative to control. The class given is functional.
For data set [10], the system named is Streptococcus mutans. The data set is described as follows: Antibiofilm activity against Streptococcus mutans assessed as inhibition of biofilm formation on using surface coated compound at 0.06 uM relative to control. The data set is classed as functional.
Data set [11] relates to Streptococcus mutans. The data set can be described thus: Antibiofilm activity against Streptococcus mutans assessed as reduction in biomass at 0.63 ug/ml relative to control. The class given is functional.
A short description of data set [12]: Inhibition of Streptococcus mutans VicK autophosphorylation activity.
A short description of data set [13]: Inhibition of Streptococcus mutans CiaH autophosphorylation activity.
Data set [14] is described as follows: Inhibition of Streptococcus mutans LiaS autophosphorylation activity.
The next data set concerns the target T1, Sortase A (Streptococcus mutans, UniProt Q8CM62).
T1 sequence (Q8CM62 whole entry): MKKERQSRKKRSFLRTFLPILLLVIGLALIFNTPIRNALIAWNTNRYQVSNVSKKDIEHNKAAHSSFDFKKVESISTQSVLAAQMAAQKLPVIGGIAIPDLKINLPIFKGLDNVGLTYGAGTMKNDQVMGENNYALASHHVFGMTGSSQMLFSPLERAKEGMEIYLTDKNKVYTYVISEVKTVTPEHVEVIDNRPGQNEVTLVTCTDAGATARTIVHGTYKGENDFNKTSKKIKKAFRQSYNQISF
The data set can be described thus: Binding affinity to Streptococcus mutans Sortase A.

Data set [15] can be described thus: Binding affinity to Streptococcus mutans GtfB.
Data set [16] is described as follows: Binding affinity to Streptococcus mutans GtfC.
Data set [17] has as its system Streptococcus mutans. The data set is described as follows: Antibacterial activity against Streptococcus mutans assessed as inhibition of planktonic growth relative to control. The class given is organism-based.
In data set [18] the test system is Streptococcus mutans. The data set can be described thus: Antibiofilm activity against Streptococcus mutans assessed as inhibition of biofilm formation at 12.5 ug/ml relative to control. The class given is functional.
In data set [19] the test system is Streptococcus mutans. The data set is described as follows: Antibiofilm activity against Streptococcus mutans assessed as inhibition of biofilm formation on hydroxyapatite surface at 5 ug/ml relative to control. The data set is classed as functional.
Data set [20] deals with Streptococcus mutans. The data set can be described thus: Antibiofilm activity against Streptococcus mutans assessed as reduction in cell viability at 50 ug/ml relative to control. The class given is functional.
The test system of data set [21] is Streptococcus mutans. The data set can be described thus: Antibiofilm activity against Streptococcus mutans assessed as decrease in biofilm viability at 0.053 to 53 uM by LIVE/DEAD staining based assay relative to control. The class given is functional.
The subject of data set [22] is Streptococcus mutans. The data set is described as follows: Antibiofilm activity against 24 hrs-old biofilm of Streptococcus mutans assessed as reduction in cell viability relative to control. The class given is functional.
Data set [23] relates to Streptococcus mutans. The data set can be described thus: Antibiofilm activity against Streptococcus mutans assessed as inhibition of biofilm formation at 250 uM on saliva-coated glass slides relative to control. The data set is classed as functional.

On to `C=CCc1ccc(O)c(OC)c1` [EUGENOL], for which, in the data set on Streptococcus mutans [1], the INH came to 0.3125 µg/mL.

For orientation: inhibition means the relative decrease from the control value, in per cent. For `CCCCCCCCCCCCCCCCCC(=O)Oc1cc(C(=O)O[C@@H]2Cc3c(O)cc(O)cc3O[C@@H]2c2cc(OC(=O)CCCCCCCCCCCCCCCCC)c(O)c(OC(=O)CCCCCCCCCCCCCCCCC)c2)cc(OC(=O)CCCCCCCCCCCCCCCCC)c1O`, the inhibition at 200 µg/mL in the data set with Streptococcus mutans [2] and with Streptococcus mutans [3] was 100% in each case.

As for `CCC[C@@H]1CCC[C@]2(CCC)C(=O)CCC[C@@H]12`, in the data set with Streptococcus mutans [4], the MBIC50 turned out to be 39 µg/mL. Moreover, in the data set with Streptococcus mutans [5], the MIC is 156.25 mg/L. Also, the “inhibition (INH)” value in the data set with Streptococcus mutans [6] turned out to be 50%.

Take `O=C(O[C@@H]1Cc2c(O)cc(O)cc2O[C@@H]1c1cc(O)c(O)c(O)c1)c1cc(O)c(O)c(O)c1` [EPIGALOCATECHIN GALLATE]: in the data set with Streptococcus mutans [4], the MBIC90 was determined as 15.6 µg/mL. This compound gave an MIC with Streptococcus mutans [5] of 31.25 mg/L. This compound had an inhibition in the data set on Streptococcus mutans [7] of 50%.

Take `COc1ccc(CCNc2nc3ccccc3nc2NCCc2ccc(OC)cc2)cc1`: the inhibition at 5 µg/mL in the data set with Streptococcus mutans [8] was 46%. For the same compound, in the data set on Streptococcus mutans [9], the inhibition at 10 µg/mL worked out at 79%.

On to `O=C1C=C/C(=C\Br)O1`, for which, in the data set with Streptococcus mutans [10], the inhibition at 0.06 µM is 63%.

By IC50 is commonly meant the midpoint of a concentration-inhibition curve. As for `CCC(C)C1(O)C(C)C(=O)c2c(c(OC)c3ccc(-c4ccc5c(Cl)c6c(c(O)c5c4O)C(=O)C(C)C(O)(C(C)C)C6/C(=C\C(=O)O)OC)c(O)c3c2O)C1/C(C)=C\C(=O)O` (stereo not given), the inhibition at 0.63 µg/mL in the data set with Streptococcus mutans [11] was 60%. For the same compound, the figures for the concentration for half-maximal inhibition (IC50) in data set [12], in data set [13] and in data set [14] were 2.53 mg/L (≈ 2.94 µM), 4.29 mg/L (≈ 4.98 µM) and 4.96 mg/L (≈ 5.76 µM), respectively.

Compound `O=c1c(O)c(-c2ccc(O)cc2O)oc2cc(O)cc(O)c12` [MORIN] yielded an IC50 at Sortase A of 27.2 µM.

What is called Kd is the constant that tells how readily two partners part at equilibrium. A high value points to weaker binding. Turning to `Oc1ccc(/C=C/c2cc(O)cc(O)c2)cc1` [RESVERATROL], the Kd in data set [15] was 144 µM; in data set [16] it was 510 µM.

Consider `CCCCCCCCCCCCCCCc1c[nH]c(N)n1.Cl`, for which the IC50 in the data set on Streptococcus mutans [4] worked out at 0.94 µM. The “growth inhibition (GI)” value in the data set on Streptococcus mutans [17] was less than 13%.

In the case of `NC(=O)c1ccccc1NC(=O)c1cc2cc([N+](=O)[O-])ccc2s1`, the Kd in [15] came to 3.7 µM; in data set [16], 0.0469 µM. Further, in the data set with Streptococcus mutans [18], the inhibition at 12.5 µg/mL was 85%.

In the case of `Cc1cc(O)c2c(c1)C(=O)c1cc(O)cc(O)c1C2=O` [EMODIN], the inhibition at 5 µg/mL in the data set with Streptococcus mutans [19] was found to be 90%.

At Sortase A, `COc1cc(/C=C/C(=O)CC(=O)/C=C/c2ccc(O)c(OC)c2)ccc1O` [CURCUMIN] yielded an IC50 of 10.2 µM. In the data set on Streptococcus mutans [5], this compound came in with an MIC of 125 µM.

As for `Cc1cccc(N/C=C2/C=C(c3ccc(Cl)cc3)OC2=O)n1`, in the data set with Streptococcus mutans [20], the inhibition at 50 µg/mL came to 75%.

As for `C[C@H]1/C=C/[C@H]2OC(C)(C)O[C@H]2C(=O)O[C@H](c2cccc(CCCCC(=O)O)c2)[C@@H](C)CCC1`, the MBIC50 with Streptococcus mutans [4] is 63 µM.

The compound `Oc1cc(O)cc(/C=C/c2ccc(O)c(O)c2)c1` [PICEATANNOL] showed a Kd in [16] of 14.6 µM. The half-inhibitory concentration (IC50) with Streptococcus mutans [4] was found to be 52 µM.

Regarding `CO[C@H](CC(=O)O)[C@@H](C)C(=O)[C@H](C)/C=C(\C)[C@H]1OC(=O)[C@H](O)[C@H](O)/C=C/[C@H](C)CCC[C@@H]1C`, the “inhibition (INH)” value with Streptococcus mutans [21] is given as 55 - 65%.

As to `O=C1C=C(Br)/C(=C/Br)O1`, the “inhibition (INH)” value in the data set on Streptococcus mutans [22] stood at 60%.

On to `O=C(/C=C/c1ccccc1)c1ccccc1` [CHALCONE], for which, on Sortase A, the concentration for half-maximal inhibition (IC50) came out at 5 µM. In addition, the inhibition at 250 µM with Streptococcus mutans [23] worked out at 90%.
